Results reported in patent EP0908457B1, “3-(1,2-benzisothiazol- and isoxazol-5-Y1)-2,4(1H,3H)-pyrimidinedione or thione and 3-(1,2-benzisothiazol- and isoxazol-5-y1)-4(3H)-pyrimidinone or thione herbicidal agents” (BASF AKTIENGESELLSCHAFT, priority 1997, dated 1999).

What was measured:
Cyperus iria = assay: Preemergence weed control under flooded paddy conditions, CYPIR (Rice Flatsedge); format: in vivo; conditions: flooded paddy, rated three to four weeks after treatment; on herbicidal effect rating, CYPIR: meaning of each grade not given here
Sagittaria pygmaea, L. = assay: Preemergence weed control under flooded paddy conditions, SAGPY (Arrowhead (Pygmaea)); format: in vivo; conditions: flooded paddy, rated three to four weeks after treatment; on herbicidal effect rating, SAGPY: meaning of each grade not given here
[1] = test system: Monochoria vaginalis, Presl.; assay: Preemergence weed control under flooded paddy conditions, MOOVA (Monochoria); format: in vivo; conditions: flooded paddy, rated three to four weeks after treatment; on herbicidal effect rating, MOOVA: meaning of each grade not given here
[2] = test system: Oryza sativa, (L.) Tebonnet; assay: Rice tolerance to post-transplant applications under flooded paddy conditions (Example 187), ORYSAT (Rice, Tebonnet); conditions: rated three to four weeks after treatment
[3] = test system: Cyperus serotinus, Rottb.; assay: Preemergence weed control under flooded paddy conditions, CYPSE (Flatsedge); format: in vivo; conditions: rated three to four weeks after treatment; on herbicidal effect rating, CYPSE: meaning of each grade not given here
[4] = test system: Echinochloa oryzoides (Ard.) Fritsch.; assay: Preemergence weed control under flooded paddy conditions, ECHORC (Watergrass (Calif.)); format: in vivo; conditions: flooded paddy, rated three to four weeks after treatment; on herbicidal effect rating, ECHORC: meaning of each grade not given here
[5] = Rate 0.0320 kg/ha, preemergence weeds
[6] = Rate 0.0620 kg/ha, preemergence weeds
[7] = Rate 0.1250 kg/ha, preemergence weeds
[8] = Rate 0.2500 kg/ha, preemergence weeds
[9] = Rate 0.5000 kg/ha, preemergence

COc1cccc(-c2nsc3ccc(-n4c(=O)cc(C(F)(F)F)n(C)c4=O)cc23)c1 [Example 301, 2,4(1H,3H)-Pyrimidinedione, 3-[3-(m-methoxyphenyl)-1,2-benzisothiazol-5-yl]-1-methyl-6-(trifluoromethyl)-]
herbicidal effect rating, CYPIR (Cyperus iria; [5]): 9.0
herbicidal effect rating, CYPIR (Cyperus iria; [6]): 9.0
herbicidal effect rating, CYPIR (Cyperus iria; [7]): 9.0
herbicidal effect rating, CYPIR (Cyperus iria; [8]): 9.0
herbicidal effect rating, SAGPY (Sagittaria pygmaea, L.; [5]): 2.0
herbicidal effect rating, SAGPY (Sagittaria pygmaea, L.; [6]): 4.5
herbicidal effect rating, SAGPY (Sagittaria pygmaea, L.; [7]): 7.0
herbicidal effect rating, SAGPY (Sagittaria pygmaea, L.; [8]): 8.5
herbicidal effect rating, MOOVA [1, 5]: 9.0
herbicidal effect rating, MOOVA [1, 6]: 9.0
herbicidal effect rating, MOOVA [1, 7]: 9.0
herbicidal effect rating, MOOVA [1, 8]: 9.0
herbicidal effect rating ORYSAT ([2]; Rate 0.0320 kg/ha): 1.0
herbicidal effect rating ORYSAT ([2]; Rate 0.0620 kg/ha): 1.0
herbicidal effect rating ORYSAT ([2]; Rate 0.1250 kg/ha): 2.5
herbicidal effect rating ORYSAT ([2]; Rate 0.2500 kg/ha): 3.5
herbicidal effect rating, CYPSE [3, 5]: 9.0
herbicidal effect rating, CYPSE [3, 6]: 9.0
herbicidal effect rating, CYPSE [3, 7]: 9.0
herbicidal effect rating, CYPSE [3, 8]: 9.0
herbicidal effect rating, ECHORC [4, 5]: 9.0
herbicidal effect rating, ECHORC [4, 6]: 9.0
herbicidal effect rating, ECHORC [4, 7]: 9.0
herbicidal effect rating, ECHORC [4, 8]: 9.0

COC(=O)CS(=O)(=O)Cc1nsc2ccc(-n3c(=O)cc(C(F)(F)F)n(C)c3=O)cc12 [Example 272, Acetic acid, {{{5-[3,6-dihydro-3-methyl-2,6-dioxo-4-(trifluoromethyl)-1(2H)-pyrimidinyl]-1,2-benzisothiazol-3-yl}methyl}sulfonyl}-, methyl ester]
CYPIR herbicidal effect rating (Cyperus iria; [9]): 0.0
SAGPY herbicidal effect rating (Sagittaria pygmaea, L.; [9]): 0.0
MOOVA herbicidal effect rating [1, 9]: 0.0
ORYSAT herbicidal effect rating ([2]; Rate 0.5000 kg/ha): 0.0
CYPSE herbicidal effect rating [3, 9]: 0.0
ECHORC herbicidal effect rating [4, 9]: 0.0

CCc1ccc(OC)c(-c2nsc3ccc(-n4c(=O)cc(C(F)(F)F)n(C)c4=O)cc23)c1 [Example 45, 3-[3-(5-Ethyl-2-methoxyphenyl)-1,2-benzisothiazol-5-yl]-1-methyl-6-(trifluoromethyl)-2,4(1H,3H)-pyrimidinedione]
herbicidal effect rating, CYPIR (Cyperus iria; 0.0313 kg/ha, preemergence): 6.0
herbicidal effect rating, CYPIR (Cyperus iria; 0.0625 kg/ha, preemergence): 9.0
herbicidal effect rating, CYPIR (Cyperus iria; 0.1250 kg/ha, preemergence): 9.0
herbicidal effect rating, CYPIR (Cyperus iria; 0.2500 kg/ha, preemergence): 9.0
herbicidal effect rating, SAGPY (Sagittaria pygmaea, L.; 0.0313 kg/ha, preemergence): 0.0
herbicidal effect rating, SAGPY (Sagittaria pygmaea, L.; 0.0625 kg/ha, preemergence): 0.0
herbicidal effect rating, SAGPY (Sagittaria pygmaea, L.; 0.1250 kg/ha, preemergence): 4.0
herbicidal effect rating, SAGPY (Sagittaria pygmaea, L.; 0.2500 kg/ha, preemergence): 6.0
herbicidal effect rating, MOOVA ([1]; 0.0313 kg/ha, preemergence): 9.0
herbicidal effect rating, MOOVA ([1]; 0.0625 kg/ha, preemergence): 9.0
herbicidal effect rating, MOOVA ([1]; 0.1250 kg/ha, preemergence): 9.0
herbicidal effect rating, MOOVA ([1]; 0.2500 kg/ha, preemergence): 9.0
herbicidal effect rating, ORYSAT (rice tolerance) ([2]; 0.0313 kg/ha): 2.0
herbicidal effect rating, ORYSAT (rice tolerance) ([2]; 0.0625 kg/ha): 2.0
herbicidal effect rating, ORYSAT (rice tolerance) ([2]; 0.1250 kg/ha): 3.0
herbicidal effect rating, ORYSAT (rice tolerance) ([2]; 0.2500 kg/ha): 3.0
herbicidal effect rating, CYPSE ([3]; 0.0625 kg/ha, preemergence): 2.0
herbicidal effect rating, CYPSE ([3]; 0.1250 kg/ha, preemergence): 9.0
herbicidal effect rating, CYPSE ([3]; 0.2500 kg/ha, preemergence): 9.0
herbicidal effect rating, ECHORC ([4]; 0.0313 kg/ha, preemergence): 9.0
herbicidal effect rating, ECHORC ([4]; 0.0625 kg/ha, preemergence): 9.0
herbicidal effect rating, ECHORC ([4]; 0.1250 kg/ha, preemergence): 9.0
herbicidal effect rating, ECHORC ([4]; 0.2500 kg/ha, preemergence): 9.0
